Data published in the supplement of paper PMC10307832.

Experiments:
Experiment in all cases: relative viability (nuclei count vs DMSO), 5 days (fraction); higher = more cells survive
[1] = compound: O=C(CCCCCCNC(=O)c1cnc(N(c2ccccc2)c2ccccc2)nc1)NO [Ricolinostat] + C[C@]1(O)C[C@@H](c2nc(-c3ccc4ccc(-c5ccccc5)nc4c3)c3c(N)nccn32)C1 [Linsitinib] (partner 1 µM)
Method in brief: (§1)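 One day after seeding in 1536-well plates, lung cancer cell lines were dosed by pin tool. Dosing was either single-drug or a fixed anchor-drug dose plus five library-drug doses (not always all listed) in √10 steps. After 5 days, nuclei were stained in one fix-and-stain step and counted on 4× images, and relative viability is the nuclei count of treated wells over that of vehicle wells, given as the median of duplicate plates.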

[2] = compound: O=C(CCCCCCNC(=O)c1cnc(N(c2ccccc2)c2ccccc2)nc1)NO [Ricolinostat] + CC(=O)Nc1cccc(-n2c(=O)n(C3CC3)c(=O)c3c(Nc4ccc(I)cc4F)n(C)c(=O)c(C)c32)c1 [Trametinib] (partner 0.02 µM)
Method in brief: as §1

[3] = compound: C1=CC=C(C(=C1)C2=CC=C(C=C2)C3=CSC4=C3C(=C(C(=O)N4)C#N)O)O + CC1(C)CCC(c2ccc(Cl)cc2)=C(CN2CCN(c3ccc(C(=O)NS(=O)(=O)c4ccc(N[C@H](CCN5CCOCC5)CSc5ccccc5)c(S(=O)(=O)C(F)(F)F)c4)cc3)CC2)C1 [Navitoclax] (partner 0.5 µM)
Method in brief: as §1

TGX 221 + OSI-027 = compound: CC1=CN2C(=O)C=C(N=C2C(=C1)C(C)NC3=CC=CC=C3)N4CCOCC4 [TGX 221] + COc1cccc2cc(-c3nc([C@H]4CC[C@H](C(=O)O)CC4)n4ncnc(N)c34)[nH]c12 [OSI-027] (partner 0.5 µM)
Method in brief: as §1

| Cell Line | relative viability ([1]; first compound 0.08 µM) | relative viability ([1]; first compound 0.253 µM) | relative viability ([1]; first compound 0.8 µM) | relative viability ([1]; first compound 2.53 µM) | relative viability ([2]; first compound 0.08 µM) | relative viability ([2]; first compound 0.253 µM) | relative viability ([2]; first compound 0.8 µM) | relative viability ([2]; first compound 2.53 µM) | relative viability ([3]; first compound 0.08 µM) | relative viability ([3]; first compound 0.253 µM) | relative viability ([3]; first compound 0.8 µM) | relative viability ([3]; first compound 2.53 µM) | relative viability ([3]; first compound 8 µM) | relative viability (TGX 221 + OSI-027; first compound 0.08 µM) | relative viability (TGX 221 + OSI-027; first compound 0.253 µM) | relative viability (TGX 221 + OSI-027; first compound 0.8 µM) | relative viability (TGX 221 + OSI-027; first compound 2.53 µM) | relative viability (TGX 221 + OSI-027; first compound 8 µM) |
| --- | --- | --- | --- | --- | --- | --- | --- | --- | --- | --- | --- | --- | --- | --- | --- | --- | --- | --- |
| NCI-H1993 | 0.696 | 0.772 | 0.665 | 0.778 | 0.5 | 0.583 | 0.564 | 0.665 | 0.951 | 0.925 | 1.05 | 0.781 | 0.879 | 0.504 | 0.575 | 0.579 | 0.559 | 0.533 |
| NCI-H2009 | 1.08 | 1.15 | 1.09 | 0.952 | 0.158 | 0.262 | 0.294 | 0.353 | 1.06 | 1.08 | 1.21 | 1.17 | 1.09 | 0.543 | 0.583 | 0.574 | 0.569 | 0.49 |
| NCI-H2023 | 0.612 | 0.614 | 0.627 | 0.625 | 0.51 | 0.637 | 0.558 | 0.536 | 0.891 | 0.89 | 0.953 | 1.03 | 1.16 | 0.324 | 0.328 | 0.441 | 0.322 | 0.275 |
| NCI-H2085 |  | 0.868 | 0.922 | 0.865 |  | 0.491 | 0.516 | 0.513 | 1.12 | 1.31 | 1.06 | 1.25 | 1.01 | 0.714 | 0.645 | 0.659 | 0.323 | 0.462 |
| NCI-H2087 | 0.896 | 0.986 | 1.01 | 0.847 | 0.211 | 0.188 | 0.173 | 0.233 | 1.02 | 1.05 | 1.1 | 1.15 | 0.994 | 0.579 | 0.481 | 0.574 | 0.465 | 0.622 |
| NCI-H2126 | 0.539 | 0.724 | 0.7 | 0.627 | 0.531 | 0.548 | 0.564 | 0.52 | 0.866 | 0.924 | 0.798 | 0.884 | 0.951 | 0.703 | 0.733 | 0.619 | 0.539 | 0.702 |
| NCI-H2228 | 0.455 | 0.451 | 0.722 | 0.814 | 0.642 | 0.534 | 0.482 | 0.45 | 1 | 1.12 | 0.828 | 1.12 | 0.848 | 0.654 | 0.522 | 0.638 | 0.453 | 0.463 |
| NCI-H2347 | 0.832 | 0.92 | 0.876 | 0.906 | 0.298 | 0.304 | 0.276 | 0.459 | 0.642 | 0.781 | 0.776 | 0.79 | 0.647 | 0.463 | 0.321 | 0.376 | 0.29 | 0.296 |
| NCI-H2405 | 0.515 | 0.93 | 1.05 | 1.1 | 0.591 | 0.682 | 0.666 | 0.82 | 0.924 | 1.04 | 0.887 | 0.776 | 0.767 | 0.609 | 0.627 | 0.664 | 0.658 | 0.589 |
| NCI-H3122 | 1.01 | 1.02 | 1.13 | 1.05 | 0.221 | 0.256 | 0.248 | 0.313 | 1.01 | 1.11 | 1 | 1.01 | 1.07 | 0.874 | 0.929 | 1 | 0.864 | 0.963 |
| PC-3 [JPC-3] | 0.894 | 0.925 | 0.9 | 0.793 | 0.662 | 0.641 | 0.713 | 0.633 | 0.913 | 0.816 | 0.849 | 0.765 | 0.808 | 0.756 | 0.775 | 0.788 | 0.751 | 0.806 |
| PC-14 | 0.928 | 0.897 | 0.907 | 0.763 | 0.733 | 0.789 | 0.666 | 0.417 | 0.951 | 0.992 | 1.15 | 1.1 | 0.798 | 0.707 | 0.791 | 0.908 | 1.05 | 0.654 |
| RERF-LC-KJ | 0.952 | 0.77 | 0.897 | 0.824 | 0.869 | 0.836 | 0.805 | 0.715 | 0.777 | 0.902 | 0.976 | 0.715 | 0.811 | 0.567 | 0.598 | 0.593 | 0.574 | 0.534 |
| SK-LU-1 | 1.09 | 0.96 | 1.18 | 0.76 | 0.476 | 0.52 | 0.475 | 0.396 | 0.891 | 0.799 | 0.946 | 0.898 | 0.742 | 0.31 | 0.331 | 0.288 | 0.273 | 0.298 |
| SK-MES-1 | 1.01 | 1.01 | 1.12 | 1.02 | 0.548 | 0.537 | 0.656 | 0.734 | 1.34 | 1.34 | 1.3 | 1.14 | 1 | 0.552 | 0.53 | 0.592 | 0.532 | 0.473 |
| SW 1573 | 0.673 | 0.781 | 0.781 | 0.853 | 0.468 | 0.55 | 0.593 | 0.596 | 0.965 | 0.902 | 0.901 | 0.976 | 0.784 | 0.511 | 0.569 | 0.525 | 0.513 | 0.494 |
| UMC-11 | 1.02 | 0.932 | 1 | 0.723 | 0.644 | 0.684 | 0.623 | 0.265 | 0.321 | 0.301 | 0.321 | 0.314 | 0.318 | 0.502 | 0.438 | 0.482 | 0.458 | 0.456 |
